Results reported in patent US20250032629A1, “NOVEL NUCLEOLIN-BINDING PEPTIDE AND USE THEREOF” (ANYGEN CO., LTD., priority 2020, published 2025).

Legend:
MCF-7 = assay: Cytotoxicity of AGM-330-CPP fusion peptides; format: cell-based, Human; settings: MCF-7, fusion peptide alone, Example 11
HCT-116 = assay: Cytotoxicity of AGM-330-CPP fusion peptides; format: cell-based, Human; settings: HCT-116, fusion peptide alone, Example 11
[1] = Body weight and serum blood chemistry in xenograft mice
MDA-MB-231-luc cells = assay: Tumor suppression in breast cancer xenograft model; format: in vivo, NPG mice
Protocol: FIG. 14B is a schematic representation of the experimental protocol. Here, anesthetized 6-week-old […] NPG mice were inoculated with a 1:1 mix of Matrigel and 1×10^6 MDA-MB-231-luc cells into the mammary fat pad. […] Nuclei were stained with DAPI (blue), and the scale bar is 50 μm. Bar graphs represent the mean±SD, and statistical analyses were performed by one-way ANOVA with Dunnett's multiple comparison. *, **, and *** indicate P<0.05, P<0.01, and P<0.001, respectively. […]
All animal experiments were performed in accordance with IACUC guidelines (GIST-2019-040). For tumorigenesis experiments, anesthetized 6-week-old female NOD-scid Il2rg^−/− mice (NPG™, VITALSTAR) were inoculated in the mammary fat pad with 1×10^6 MDA-MB-231-luc cells in a volume of 100 μl (n=5˜6 for each group). After tumor cell inoculation, when the tumor volume reached approximately 100 mm^3, the mice were randomly divided into the following five groups: (i) control, (ii) low-dose paclitaxel (2 mg/kg), (iii) high-dose paclitaxel (10 mg/kg), (iv) AGM-330 (16.68 mg/kg or 8.34 mg/kg), and (v) AGM-330-PTX (19.05 mg/kg or 10.71 mg/kg). The tumor size was measured twice a week, and the tumor volume was calculated with the following formula:
For the bioluminescent imaging experiment, D-luciferin (150 mg/kg; PerkinElmer) was intraperitoneally injected into each mouse, and an IVIS 100 imaging system (Xenogen, Corporation, Alameda, CA) was used for bioluminescent monitoring. Mice were anesthetized with vaporized isoflurane (BK Pharm, Ilsan, Korea) and placed in an imaging chamber. After 10 min, each animal was imaged with an exposure time of 1 min. All bioluminescent image data were provided by Living Image software (version 4.5.2, PerkinElmer). Photons detected from tumors were converted to average radiance values (photon/see/cm^2/sr), which are quantitative data obtained from a region of intensity (ROI) and include the photons emitted by bioluminescent cells from an assigned rectangular area over the whole body of each mouse.
Following in vitro proliferation analysis on cancer lines, the present inventors investigated whether AGM-330t-PTX could be a potential therapeutic agent in vivo. The present inventors inoculated MDA-MB-231-luc cells into the mammary fat pad of NPG mice. After the subcutaneous tumors grew to 100 mm^3, comparative efficacy studies were performed by dividing the animals into five groups (n=5/group) treated with vehicle (PBS), AGM-330t (16.68 mg/kg), PTX (2 or 10 mg/kg, respectively) or AGM-330t-PTX (19.05 mg/kg) twice a week by tail vein injection (FIG. 14B). Tumor growth was monitored by measuring volumes twice a week with a caliber rule over the course of 3 weeks.
The present inventors also performed histological staining of the excised tumors, and an independent pathologist evaluated the slides.

CC[C@H](C)[C@H](NC(=O)[C@H](CCCNC(=N)N)NC(=O)[C@H](CC(C)C)NC(=O)[C@@H](NC(=O)[C@H](CCCNC(=N)N)NC(=O)[C@H](CCSC)NC(=O)[C@@H](NC(=O)[C@@H](N)CCCNC(=N)N)[C@@H](C)CC)[C@@H](C)CC)C(=O)N[C@@H](CC(C)C)C(=O)N[C@@H](CCCCN)C(=O)N[C@@H](CC(C)C)C(=O)N[C@@H](C)C(=O)N[C@@H](CCCNC(=N)N)C(=O)NCCCC[C@H](NC(=O)[C@H](CCCNC(=N)N)NC(=O)[C@H](C)NC(=O)[C@H](CC(C)C)NC(=O)[C@H](CCCCN)NC(=O)[C@H](CC(C)C)NC(=O)[C@@H](NC(=O)[C@H](CCCNC(=N)N)NC(=O)[C@H](CC(C)C)NC(=O)[C@@H](NC(=O)[C@H](CCCNC(=N)N)NC(=O)[C@H](CCSC)NC(=O)[C@@H](NC(=O)[C@@H](N)CCCNC(=N)N)[C@@H](C)CC)[C@@H](C)CC)[C@@H](C)CC)C(=O)NCCCC[C@H](NC(=O)[C@H](CCCCNC(=O)[C@H](CCCNC(=N)N)NC(=O)[C@H](C)NC(=O)[C@H](CC(C)C)NC(=O)[C@H](CCCCN)NC(=O)[C@H](CC(C)C)NC(=O)[C@@H](NC(=O)[C@H](CCCNC(=N)N)NC(=O)[C@H](CC(C)C)NC(=O)[C@@H](NC(=O)[C@H](CCCNC(=N)N)NC(=O)[C@H](CCSC)NC(=O)[C@@H](NC(=O)[C@@H](N)CCCNC(=N)N)[C@@H](C)CC)[C@@H](C)CC)[C@@H](C)CC)NC(=O)[C@H](CCCNC(=N)N)NC(=O)[C@H](C)NC(=O)[C@H](CC(C)C)NC(=O)[C@H](CCCCN)NC(=O)[C@H](CC(C)C)NC(=O)[C@@H](NC(=O)[C@H](CCCNC(=N)N)NC(=O)[C@H](CC(C)C)NC(=O)[C@@H](NC(=O)[C@H](CCCNC(=N)N)NC(=O)[C@H](CCSC)NC(=O)[C@@H](NC(=O)[C@@H](N)CCCNC(=N)N)[C@@H](C)CC)[C@@H](C)CC)[C@@H](C)CC)C(=O)N[C@@H](CSSC[C@H](NC(=O)[C@H](CCCCNC(=O)[C@H](CCCCNC(=O)CCOCCOCCOCCOCCOCCOCCNC(=O)[C@H](CCCCN)NC(=O)[C@H](CC(C)C)NC(=O)[C@H](Cc1ccc(O)cc1)NC(=O)[C@@H](NC(=O)[C@H](CCSC)NC(=O)[C@H](C)NC(=O)CNC(=O)[C@H](Cc1c[nH]cn1)NC(=O)[C@@H](N)CCCNC(=N)N)C(C)C)NC(=O)CCOCCOCCOCCOCCOCCOCCNC(=O)[C@H](CCCCN)NC(=O)[C@H](CC(C)C)NC(=O)[C@H](Cc1ccc(O)cc1)NC(=O)[C@@H](NC(=O)[C@H](CCSC)NC(=O)[C@H](C)NC(=O)CNC(=O)[C@H](Cc1c[nH]cn1)NC(=O)[C@@H](N)CCCNC(=N)N)C(C)C)NC(=O)[C@H](CCCCNC(=O)CCOCCOCCOCCOCCOCCOCCNC(=O)[C@H](CCCCN)NC(=O)[C@H](CC(C)C)NC(=O)[C@H](Cc1ccc(O)cc1)NC(=O)[C@@H](NC(=O)[C@H](CCSC)NC(=O)[C@H](C)NC(=O)CNC(=O)[C@H](Cc1c[nH]cn1)NC(=O)[C@@H](N)CCCNC(=N)N)C(C)C)NC(=O)CCOCCOCCOCCOCCOCCOCCNC(=O)[C@H](CCCCN)NC(=O)[C@H](CC(C)C)NC(=O)[C@H](Cc1ccc(O)cc1)NC(=O)[C@@H](NC(=O)[C@H](CCSC)NC(=O)[C@H](C)NC(=O)CNC(=O)[C@H](Cc1c[nH]cn1)NC(=O)[C@@H](N)CCCNC(=N)N)C(C)C)C(=O)O)C(=O)O [AGM-330t-tCPP]
IC50 (MCF-7): 3.8 µM
IC50 (HCT-116): 3.79 µM

CSCC[C@H](NC(=O)[C@H](C)NC(=O)CNC(=O)[C@H](Cc1c[nH]cn1)NC(=O)[C@@H](N)CCCNC(=N)N)C(=O)N[C@H](C(=O)N[C@@H](Cc1ccc(O)cc1)C(=O)N[C@@H](CC(C)C)C(=O)N[C@@H](CCCCN)C(=O)NCCOCCOCCOCCOCCOCCOCCOCCOCCOCCOCCOCCOCCC(=O)NCCCC[C@H](NC(=O)CCOCCOCCOCCOCCOCCOCCOCCOCCOCCOCCOCCOCCNC(=O)[C@H](CCCCN)NC(=O)[C@H](CC(C)C)NC(=O)[C@H](Cc1ccc(O)cc1)NC(=O)[C@@H](NC(=O)[C@H](CCSC)NC(=O)[C@H](C)NC(=O)CNC(=O)[C@H](Cc1c[nH]cn1)NC(=O)[C@@H](N)CCCNC(=N)N)C(C)C)C(=O)NCCCC[C@H](NC(=O)[C@H](CCCCNC(=O)CCOCCOCCOCCOCCOCCOCCOCCOCCOCCOCCOCCOCCNC(=O)[C@H](CCCCN)NC(=O)[C@H](CC(C)C)NC(=O)[C@H](Cc1ccc(O)cc1)NC(=O)[C@@H](NC(=O)[C@H](CCSC)NC(=O)[C@H](C)NC(=O)CNC(=O)[C@H](Cc1c[nH]cn1)NC(=O)[C@@H](N)CCCNC(=N)N)C(C)C)NC(=O)CCOCCOCCOCCOCCOCCOCCOCCOCCOCCOCCOCCOCCNC(=O)[C@H](CCCCN)NC(=O)[C@H](CC(C)C)NC(=O)[C@H](Cc1ccc(O)cc1)NC(=O)[C@@H](NC(=O)[C@H](CCSC)NC(=O)[C@H](C)NC(=O)CNC(=O)[C@H](Cc1c[nH]cn1)NC(=O)[C@@H](N)CCCNC(=N)N)C(C)C)C(=O)N[C@@H](CSC1CC(=O)N(CCC(=O)O[C@@H](C(=O)O[C@H]2C[C@@]3(O)[C@@H](OC(=O)c4ccccc4)[C@@H]4[C@]5(OC(C)=O)CO[C@@H]5C[C@H](O)[C@@]4(C)C(=O)[C@H](OC(C)=O)C(=C2C)C3(C)C)[C@@H](NC(=O)c2ccccc2)c2ccccc2)C1=O)C(=O)O)C(C)C (some centres unmarked) [AGM-330t-PTX]
mouse body weights compared to vehicle (PBS) administration ([1]; AGM-330t-PTX 19.05 mg/kg, 3 weeks): not affected
blood chemistry analysis (ALB, GOT, GPT, TP-PS, UA) ([1]; serum of xenografted mice): no adverse signs of toxicity
average tumor volume (MDA-MB-231-luc cells; 19.05 mg/kg twice a week, tail vein, n=5): 807±90 mm^3
decrease of average tumor volume with respect to the same dose PTX (MDA-MB-231-luc cells; 19.05 mg/kg vs PTX 2 mg/kg): approximately 52%
final average tumor weight (MDA-MB-231-luc cells; 19.05 mg/kg, n=5): 1.3 ± 0.1 g
apoptotic cell nuclei in excised tumors (TUNEL) (MDA-MB-231-luc cells; mouse, in vivo): increase in apoptotic cell nuclei
number of cancerous cells in excised tumors (H&E staining, Ki-67) (MDA-MB-231-luc cells; mouse, in vivo): reduction in the number of cancerous cells

CC[C@H](C)[C@H](NC(=O)[C@H](CCCNC(=N)N)NC(=O)[C@H](CC(C)C)NC(=O)[C@@H](NC(=O)[C@H](CCCNC(=N)N)NC(=O)[C@H](CCSC)NC(=O)[C@@H](NC(=O)[C@@H](N)CCCNC(=N)N)[C@@H](C)CC)[C@@H](C)CC)C(=O)N[C@@H](CC(C)C)C(=O)N[C@@H](CCCCN)C(=O)N[C@@H](CC(C)C)C(=O)N[C@@H](C)C(=O)N[C@@H](CCCNC(=N)N)C(=O)NCCCC[C@H](NC(=O)[C@H](CCCNC(=N)N)NC(=O)[C@H](C)NC(=O)[C@H](CC(C)C)NC(=O)[C@H](CCCCN)NC(=O)[C@H](CC(C)C)NC(=O)[C@@H](NC(=O)[C@H](CCCNC(=N)N)NC(=O)[C@H](CC(C)C)NC(=O)[C@@H](NC(=O)[C@H](CCCNC(=N)N)NC(=O)[C@H](CCSC)NC(=O)[C@@H](NC(=O)[C@@H](N)CCCNC(=N)N)[C@@H](C)CC)[C@@H](C)CC)[C@@H](C)CC)C(=O)N[C@@H](CSSC[C@H](NC(=O)[C@H](CCCCNC(=O)CCOCCOCCOCCOCCOCCOCCNC(=O)[C@H](CCCCN)NC(=O)[C@H](CC(C)C)NC(=O)[C@H](Cc1ccc(O)cc1)NC(=O)[C@@H](NC(=O)[C@H](CCSC)NC(=O)[C@H](C)NC(=O)CNC(=O)[C@H](Cc1c[nH]cn1)NC(=O)[C@@H](N)CCCNC(=N)N)C(C)C)NC(=O)CCOCCOCCOCCOCCOCCOCCNC(=O)[C@H](CCCCN)NC(=O)[C@H](CC(C)C)NC(=O)[C@H](Cc1ccc(O)cc1)NC(=O)[C@@H](NC(=O)[C@H](CCSC)NC(=O)[C@H](C)NC(=O)CNC(=O)[C@H](Cc1c[nH]cn1)NC(=O)[C@@H](N)CCCNC(=N)N)C(C)C)C(=O)O)C(=O)O [AGM-330d-dCPP]
IC50 (MCF-7): 4.21 µM
IC50 (HCT-116): 5.47 µM
